Laboratory results as given in patent US7417156B2, “Orally active, antimalarial, anticancer, artemisinin-derived trioxane dimers” (Johns Hopkins University, priority 2002, dated 2008).

Assays:
BT-549 = test: NCI 60 cell line panel screen (SRB); format: cell-based, human; conditions: for Log10TGI50: TGI: PG=0
HOP-62 = test: NCI 60 cell line panel screen (SRB); format: cell-based, human; conditions: for Log10TGI50: TGI: PG=0; for Log10GI50: Non-Small Cell Lung Cancer, HOP-62
SNB-19 = test: NCI 60 cell line panel screen (SRB); format: cell-based, human
SK-OV-3 = test: NCI 60 cell line panel screen (SRB); format: cell-based, human; conditions: for Log10TGI50: TGI: PG=0
[1] = tested on: P. berghei NY malaria parasite; test: Antimalarial efficacies in vivo in mice
Source text: Neither overt toxicity nor behavioral modification was observed due to drug administration in any of these mouse experiments.

malaria parasite = test: Efficacy Study Blood Schizontocidal Activity; format: in vivo; set-up: ED90: unit not given here
[2] = HOP-62 (Non-Small Cell Lung Cancer)

In the case of C[C@@H]1CC[C@H]2[C@@H](C)C(CC(O)(CC3OC4O[C@]5(C)CC[C@H]6[C@H](C)CC[C@@H]([C@H]3C)C46OO5)c3ccc(C(=O)O)cc3)OC3O[C@]4(C)CCC1C32OO4 (some centres unmarked) [Compound 11b, bis-trioxane tertiary alcohol benzoic acid], the Log10LC50 (BT-549; BT-549 (Breast Cancer), LC50: PG=−50) is reported as greater than −4.30 log10M, the Log10TGI50 (BT-549; BT-549 (Breast Cancer)) is reported as −5.32 log10M and the Log10GI50 (BT-549; Breast Cancer, BT-549) is reported as −5.82. For the same compound, the Log10LC50 (HOP-62; HOP-62 (Non-Small Cell Lung Cancer), LC50: PG=−50) was greater than −4.30 log10M, the Log10TGI50 (HOP-62; [2]) was greater than −4.30 log10M and the Log10GI50 (HOP-62) was −6.96. For the same compound, the Log10GI50 (SNB-19; CNS Cancer, SNB-19) was −6.53, the Log10LC50 (SNB-19; SNB-19 (CNS Cancer), LC50: PG=−50) was greater than −4.30 log10M and the Log10TGI50 (SNB-19; SNB-19 (CNS Cancer), TGI: PG=0) was greater than −4.30 log10M. The Log10LC50 (SK-OV-3; SK-OV-3 (Ovarian Cancer), LC50: PG=−50) was greater than −4.30 log10M and the Log10TGI50 (SK-OV-3; SK-OV-3 (Ovarian Cancer)) was greater than −4.30 log10M.
CC1CCC2C(C)C(CC(COCC(=O)O)CC3OC4OC5(C)CCC6C(C)CCC(C3C)C46OO5)OC3OC4(C)CCC1C32OO4 (centres unmarked) [Compound 12b, bis-trioxane O-acetic acid] was tested, and the Log10TGI50 (BT-549; BT-549 (Breast Cancer)) was greater than −4.30 log10M, the Log10TGI50 (HOP-62; [2]) was greater than −4.30 log10M and the Log10GI50 (HOP-62) was −6.23. For the same compound, the Log10GI50 (SK-OV-3; Ovarian Cancer, SK-OV-3) was greater than −4.30, the Log10TGI50 (SK-OV-3; SK-OV-3 (Ovarian Cancer)) was greater than −4.30 log10M and the ED50 ([1]; route IV) was 1.0 mg/kg × 4. For the same compound, the ED90 ([1]; route IV) was 3.5 mg/kg × 4, the “% Parasite Supression at 10 mg/kg” value ([1]; route IV) was 95.7% and the ED50 ([1]; route PO) was 6.5 mg/kg × 4. The ED90 ([1]; route PO) was 17.0 mg/kg × 4, the “% Parasite Supression at 10 mg/kg” value ([1]; route PO) was 46.5% and the ED50 (malaria parasite; Route: IV) was 5.2. The ED90 (malaria parasite; Route: IV) was 10.0, the ED50 (malaria parasite; Route: PO) was 6.0 and the ED90 (malaria parasite; Route: PO) was 19.0.
